Structures can show the parent of a compound that is named as a salt. Where two headings read alike, the source gives them in different places. Values belong to the compound of their own block, whether it stands above or below them.
Experiments:
[1] = biological target: T1, Ba/F3 T674I (FIP1L1-PDFRA-T674I) (Homo sapiens, UniProt P16234, T674I, cells depend on it); experiment: XTT cell proliferation assay, Ba/F3 T674I; assay type: cell-based; conditions: for GI50: XTT assay, read-out: Cellular IC50 Ba/F3 T674I
T1 construct: fused on or other part: Q6UN15 (Pre-mRNA 3'-end-processing factor FIP1)

[2] = Ocular exposure after eye drop administration; assay type: in vivo; conditions: mouse, bilateral topical instillation of 0.1% formulation QDX1
Procedure: Exposure data of compounds at 0.1% via eye drop administration:
On topical dosing of compounds formulated as 0.1% doses in 0.2% tyloxapol/1% HPMC/4% Mannitol, exposure levels in found in back of the eye tissues of the mouse are shown at two different time points, namely at 2 h and at 7 h.

[3] = test system: HMC-1, a mast cell leukemia line (KITD816V-positive); experiment: XTT cell proliferation assay, HMC-1; assay type: cell-based; conditions: for IC50: Homo sapiens
[4] = test system: EOL-1, a chronic eosinophilic leukemia (CEL) derived line (FIP1L1-PDFRA-positive); experiment: XTT cell proliferation assay, EOL-1; assay type: cell-based; conditions: for IC50: Homo sapiens, EOL1, XTT assay, read-out: Cellular IC50 EOL-1
[5] = Ocular exposure after eye drop administration; assay type: in vivo; conditions: mouse
HEL cells = experiment: XTT cell proliferation assay, HEL cells; assay type: cell-based; conditions: Homo sapiens, XTT assay, Table 19, read-out: Cellular IC50 HEL
recombinant JAK2 = biological target: T2, recombinant JAK2 (Homo sapiens, UniProt O60674); experiment: IC50 value determinations for Jak2 kinase, luminescence-based kinase assay (Kinase-Glo); assay type: biochemical
T2 construct: purchased Upstate Cell Signaling Solutions

[6] = cornea, read-out: Concentration (nM) Cornea
[7] = retina, read-out: Concentration (nM) retina
[8] = sclera/choroid, read-out: Concentration (nM) Sclera/choroid
[9] = HMC1, XTT assay, read-out: Cellular IC50 HMC-1

T2 sequence (O60674 808-1132 limits assumed): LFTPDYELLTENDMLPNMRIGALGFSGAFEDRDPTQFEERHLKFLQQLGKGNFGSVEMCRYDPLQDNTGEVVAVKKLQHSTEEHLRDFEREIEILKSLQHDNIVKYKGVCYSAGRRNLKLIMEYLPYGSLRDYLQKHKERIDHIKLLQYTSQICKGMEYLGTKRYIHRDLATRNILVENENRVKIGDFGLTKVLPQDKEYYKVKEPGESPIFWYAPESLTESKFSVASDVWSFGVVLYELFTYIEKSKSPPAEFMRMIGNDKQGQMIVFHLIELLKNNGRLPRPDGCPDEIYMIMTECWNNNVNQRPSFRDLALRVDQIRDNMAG
T1 sequence (P16234 whole entry T674I, the tested form may be a part): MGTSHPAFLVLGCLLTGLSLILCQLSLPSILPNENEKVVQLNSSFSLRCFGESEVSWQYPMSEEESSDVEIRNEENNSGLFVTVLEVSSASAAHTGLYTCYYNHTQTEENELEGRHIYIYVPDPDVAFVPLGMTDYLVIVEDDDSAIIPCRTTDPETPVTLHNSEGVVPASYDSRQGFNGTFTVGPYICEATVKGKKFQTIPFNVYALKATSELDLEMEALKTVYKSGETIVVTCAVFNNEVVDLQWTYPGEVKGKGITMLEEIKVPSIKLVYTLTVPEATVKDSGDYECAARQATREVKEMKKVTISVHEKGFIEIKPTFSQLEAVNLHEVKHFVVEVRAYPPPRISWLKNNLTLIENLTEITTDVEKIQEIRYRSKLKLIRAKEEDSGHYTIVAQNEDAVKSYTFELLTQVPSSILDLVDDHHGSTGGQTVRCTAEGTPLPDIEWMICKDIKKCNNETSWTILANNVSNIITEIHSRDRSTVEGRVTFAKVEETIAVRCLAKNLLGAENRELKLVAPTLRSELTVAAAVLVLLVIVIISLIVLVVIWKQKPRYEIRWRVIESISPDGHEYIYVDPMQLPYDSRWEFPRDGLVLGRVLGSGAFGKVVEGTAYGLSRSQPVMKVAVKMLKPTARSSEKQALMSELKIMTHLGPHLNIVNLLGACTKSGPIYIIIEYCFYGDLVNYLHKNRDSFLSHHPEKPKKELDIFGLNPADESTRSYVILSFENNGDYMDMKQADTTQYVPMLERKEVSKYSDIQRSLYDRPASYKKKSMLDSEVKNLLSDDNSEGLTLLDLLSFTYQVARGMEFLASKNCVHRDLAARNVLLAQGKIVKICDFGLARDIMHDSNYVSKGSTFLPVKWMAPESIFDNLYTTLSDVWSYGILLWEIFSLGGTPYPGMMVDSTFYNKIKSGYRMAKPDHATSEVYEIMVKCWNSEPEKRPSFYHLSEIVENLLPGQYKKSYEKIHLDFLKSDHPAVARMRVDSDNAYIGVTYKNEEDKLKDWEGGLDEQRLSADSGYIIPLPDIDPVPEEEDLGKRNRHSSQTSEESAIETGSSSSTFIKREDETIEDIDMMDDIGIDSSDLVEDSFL

- concentrations inhibiting growth of Ba/F3 cells harboring FIP1L1-PDFGRA-T674I [1]: nanomolar concentrations
SMILES: Cc1cn(-c2cc(NC(=O)c3ccc(C)c(Nc4nccc(-c5cccnc5)n4)c3)cc(C(F)(F)F)c2)cn1 [nilotinib]

- IC50 [3, 9]: 4000 nM
- IC50 [4]: 0.002 nM
- concentrations inhibiting growth of Ba/F3 cells harboring FIP1L1-PDFGRA-T674I [1]: nanomolar concentrations
- GI50 [1]: 16 nM
SMILES: CNC(=O)c1cc(Oc2ccc(NC(=O)Nc3ccc(Cl)c(C(F)(F)F)c3)cc2)ccn1 [Sorafenib]
- sensitivity of HMC-1 growth [3]: only a limited effect
- concentrations inhibiting EOL-1 growth [4]: picomolar concentrations

- concentration at 2 h [2, 6]: 8840 nM
- concentration at 2 h [2, 7]: 495 nM
- concentration at 2 h [2, 8]: 6040 nM
- concentration at 6 h ([5]; cornea, bilateral topical instillation of 0.1% formulation QDX1, read-out: Concentration (nM) Cornea): 3780 nM
- concentration at 6 h ([5]; retina, bilateral topical instillation of 0.1% formulation QDX1, read-out: Concentration (nM) retina): 351 nM
- concentration at 6 h ([5]; sclera/choroid, bilateral topical instillation of 0.1% formulation QDX1, read-out: Concentration (nM) Sclera/choroid): 2970 nM
SMILES: COc1cc(Nc2nc(Nc3ccc(OCCN4CCCC4)cc3)ncc2C)ccc1Cl [XVII]

- IC50 (recombinant JAK2; Table 1): 890 nM
SMILES: Cc1cnc(Nc2ccc(N3CCN(C)CC3)cc2)nc1Nc1cccc(C(=O)NC(C)(C)C)c1 [N-tert-Butyl-3-{5-methyl-2-[4-(4-methyl-piperazin-1-yl)-phenylamino]-pyrimidin-4-ylamino}-benzamide]

- IC50 (recombinant JAK2; Table 1): 96.7 nM
SMILES: Cc1cnc(Nc2ccc(-c3nnn[nH]3)cc2)nc1Nc1cccc(S(=O)(=O)NC(C)(C)C)c1 [N-tert-Butyl-3-{5-methyl-2-[4-(1H-tetrazol-5-yl)-phenylamino]-pyrimidin-4-ylamino}-benzenesulfonamide]

- IC50 (recombinant JAK2; Table 1): 16.6 nM
SMILES: Cc1ccc(Nc2nc(Nc3ccc(N4CCN(C)CC4)cc3)ncc2C)cc1C [drawing 459, 5-methyl-N4-(3,4-dimeihylphenyl)-N2-(4-(4-methylpiperazin-1-yl)phenyl)pyrimidine-2,4-diamine Hydrochloride]

More lines, now with the values behind:

SMILES: COc1cc(Nc2nc(Nc3ccc(N4CCNCC4)cc3)ncc2C)ccc1Cl [Compound XLIV, N^4-(4-Chloro-3-methoxy-phenyl)-5-methyl-N^2-(4-piperazin-1-yl-phenyl)-pyrimidine-2,4-diamine]
- concentration at 2 h [2, 6]: 103000 nM
- concentration at 7 h [2, 6]: 26600 nM
- concentration at 2 h [2, 7]: 406 nM
- concentration at 7 h [2, 7]: 321 nM
- concentration at 2 h [2, 8]: 4840 nM
- concentration at 7 h [2, 8]: 3180 nM

SMILES: Cc1cnc(Nc2ccc(OCCN3CCCC3)cc2)nc1Nc1cccc2c1OCO2 [Compound XXXVI, N^4-Benzo[1,3]dioxol-4-yl-5-methyl-N^2-[4-(2-pyrrolidin-1-yl-ethoxy)-phenyl]-pyrimidine-2,4-diamine]
- concentration at 2 h [2, 6]: 7870 nM
- concentration at 7 h [2, 6]: 18600 nM
- concentration at 2 h [2, 7]: 816 nM
- concentration at 7 h [2, 7]: 11200 nM
- concentration at 2 h [2, 8]: 7250 nM
- concentration at 7 h [2, 8]: 34800 nM

SMILES: Cc1ccc(NC(=O)c2ccc(CN3CCN(C)CC3)cc2)cc1Nc1nccc(-c2cccnc2)n1 [Imatinib, imatinib mesylate]
- concentrations inhibiting EOL-1 growth [4]: picomolar concentrations

SMILES: COc1cc(Nc2nc(Nc3ccc(OC4CCNCC4)cc3)ncc2C)ccc1Cl [Compound LXXXII, N^4-(4-Chloro-3-methoxy-phenyl)-5-methyl-N^2-[4-(piperidin-4-yloxy)-phenyl]-pyrimidine-2,4-diamine]
- concentration at 2 h [2, 6]: 69900 nM
- concentration at 7 h [2, 6]: 45400 nM
- concentration at 2 h [2, 7]: 267 nM
- concentration at 7 h [2, 7]: 592 nM
- concentration at 2 h [2, 8]: 2340 nM
- concentration at 7 h [2, 8]: 2250 nM

SMILES: Cc1cnc(Nc2ccc(N3CCN(C)CC3)cc2)nc1Nc1ccc(Cl)c2[nH]ccc12 [Compound LXXIV, N^4-(7-Chloro-1H-indol-4-yl)-5-methyl-N^2-(4-(4-methylpiperazin-1-yl)phenyl)pyrimidine-2,4-diamine]
- concentration at 2 h [2, 6]: 45000 nM
- concentration at 7 h [2, 6]: 21000 nM
- concentration at 2 h [2, 7]: 2120 nM
- concentration at 7 h [2, 7]: 2150 nM
- concentration at 2 h [2, 8]: 6090 nM
- concentration at 7 h [2, 8]: 7350 nM

SMILES: Cc1cnc(Nc2ccc(OCCN3CCCC3)cc2)nc1Nc1cccc(S(=O)(=O)NC(C)(C)C)c1 [LVII]
- IC50 (HEL cells): 300 nM
- IC50 ([3]; HMC1, read-out: Cellular IC50 HMC-1 (nM)): 355 nM
- IC50 [4]: < 0.001 nM

SMILES: Cc1nc(Nc2ncc(C(=O)Nc3c(C)cccc3Cl)s2)cc(N2CCN(CCO)CC2)n1 [Dasatinib, dasatinib]
- IC50 [3, 9]: 1300 nM
- IC50 [4]: < 0.001 nM
- GI50 [1]: 30900 nM

SMILES: Cc1cnc(Nc2ccc(N3CCOCC3)cc2)nc1Nc1cccc(S(=O)(=O)NC(C)(C)C)c1 [N-tert-Butyl-3-[5-methyl-2-(4-morpholin-4-yl-phenylamino)-pyrimidin-4-ylamino]-benzenesulfonamide]
- IC50 (recombinant JAK2; Table 1): 12.1 nM

SMILES: Cc1cnc(Nc2ccc(N3CCNCC3)nc2)nc1Nc1cccc(S(=O)(=O)NC(C)(C)C)c1 [N-tert-Butyl-3-[5-methyl-2-(6-piperazin-1-yl-pyridin-3-ylamino)-pyrimidin-4-ylamino]-benzenesulfonamide]
- IC50 (recombinant JAK2; Table 1): 10 nM

SMILES: Cc1cnc(Nc2ccc(Cn3ccnc3)cc2)nc1Nc1cccc(S(=O)(=O)NC(C)(C)C)c1 [N-tert-Butyl-3-[2-(4-imidazol-1-ylmethyl-phenylamino)-5-methyl-pyrimidin-4-ylamino]-benzenesulfonamide]
- IC50 (recombinant JAK2; Table 1): 8.42 nM

SMILES: Cc1cnc(Nc2cccc(S(=O)(=O)NC(C)(C)C)c2)nc1Nc1cccc(S(=O)(=O)NC(C)(C)C)c1 [Compound 58]
- IC50 (recombinant JAK2; Table 9, SAR of the P2/P1 region): 707 nM

SMILES: Cc1cnc(Nc2ccc(OCCN3CCCC3)cc2)nc1Nc1ccc(Cl)c2[nH]ccc12 [N2-(4-(2-(pyrrolidin-1-yl)ethoxy)phenyl)-N4-(7-chloro-1H-indol-4-yl)-5-methylpyrimidine-2,4-diamine Hydrochloride]
- IC50 (recombinant JAK2; Table 1): 1.16 nM

SMILES: Cc1cnc(Nc2ccc(CN3CCN(C)CC3)cc2)nc1Nc1cccc(S(=O)(=O)NC(C)(C)C)c1
- IC50 (recombinant JAK2; Table 1): 29.8 nM
